Measured values taken from US20110165115A1, “SYNERGISTIC ATTRACTANTS FOR PESTIFEROUS SOCIAL INSECTS” (STERLING INTERNATIONAL INC., priority 2010, published 2011).

How the values were obtained:
[1] = system: Polistes dominulus worker antennae; test: GC-EAD of cherry branch aeration samples
Description: Lapin cherry branches with severely damaged cherries and leaves and undamaged or slightly damaged branches were collected from a cherry orchard at Creston, Canada, on Jul. 29, 2009, and were transported to the Sterling International, Inc. lab (Spokane, Wash.) on the same day and kept at 4° C. before aerations. Headspace volatiles from the cherry branches (damaged or undamaged) were sampled by a battery operated pump and a high density polyacetate oven bag (48.2×59.6 cm Reynolds® Oven Bag; Richmond, Va., USA) enclosure with one activated charcoal filter tube in the air inlet, on Jul. 30, 2009. The volatiles in the enclosure were trapped on one Porapak Q tube (50/80 mesh; 30 mg in Teflon tube: 3 mm×35 mm) for 2.5 hr (airflow 300 ml/min) and extracted with 1 ml redistilled pentane. Aeration samples of the cherry branches (damaged or undamaged/slightly damaged) were injected (3 μl) splitless into a Varian CP-3800 GC equipped with a polar column (HP-INNOWax; 30 m×0.53 mm×1.0 μm film thickness; […] Helium was used as the carrier gas, and the injector and detector temperatures were 250° C. and 300° C., respectively. Column temperature was 50° C. for 1 min, rising to 240° C. at 10° C./min, and then held for 10 min. The outlet for the EAD was held in a humidified air stream flowing at 0.5 m/sec over the antennal preparation. EAD recordings were made using silver wire-glass capillary electrodes filled with Beadle-Ephrussi Ringer on freshly cut antennae. The antennal signals were stored and analyzed on a PC equipped with a serial IDAC interface box and the program EAD ver. 2.5 (Syntech, Hilversum, The Netherlands). […] (See FIG. 2.) The same chemicals were also tested on beneficial insect antennae from Chrysopa oculata, Myrmeleon crudelis, Podisus maculiventris, and Hippodarnia convergens. (See […] active peaks in the aeration samples were identified by GC-MS on an HP 6890 GC series coupled with an HP 5973 Mass Selective Detector using the same type of GC column and conditions as described above. Compounds were identified by comparison of retention times with those of authentic standards and with mass spectra of standards.

[2] = system: P. dominulus workers antennae; test: GC-EAD of synthetic mixture of known HIPVs; parameters: species or system Polistes dominulus; details: 100 ng/μl each in hexane
Description: (§1) Aeration samples of the cherry branches (damaged or undamaged/slightly damaged) were injected (3 μl) splitless into a Varian CP-3800 GC equipped with a polar column (HP-INNOWax; 30 m×0.53 mm×1.0 μm film thickness; Agilent Technologies, Wilmington, Del., USA) and a 1:1 effluent splitter that allowed simultaneous flame ionization detection (FID) and electroantennographic detection (EAD) of the European paper wasp (Polistes dominulus) worker antennae to the separated volatile compounds. Helium was used as the carrier gas, and the injector and detector temperatures were 250° C. and 300° C., respectively. Column temperature was 50° C. for 1 min, rising to 240° C. at 10° C./min, and then held for 10 min. The outlet for the EAD was held in a humidified air stream flowing at 0.5 m/sec over the antennal preparation. EAD recordings were made using silver wire-glass capillary electrodes filled with Beadle-Ephrussi Ringer on freshly cut antennae. The antennal signals were stored and analyzed on a PC equipped with a serial IDAC interface box and the program EAD ver. 2.5 (Syntech, Hilversum, The Netherlands). In addition, GC-EAD responses to a synthetic mixture (100 ng/μl each) containing nine known HIPVs including cis-3-hexen-1-ol, cis-3-hexenyl acetate, trans-β-ocimene, (E)-4,8-dimethyl-1,3,7-nonatriene, linalool, methyl salicylate, geranyl acetate, trans-β-caryophyllene and trans-β-farnesene were tested on the P. dominulus workers. (See FIG. 2.) The same chemicals were also tested on beneficial insect antennae from Chrysopa oculata, Myrmeleon crudelis, Podisus maculiventris, and Hippodarnia convergens. (See FIG. 6.) Antennally active peaks in the aeration samples were identified by GC-MS on an HP 6890 GC series coupled with an HP 5973 Mass Selective Detector using the same type of GC column and conditions as described above. Compounds were identified by comparison of retention times with those of authentic standards and with mass spectra of standards.

V. pensylvanica = test: Field trapping Experiment 1, Rescue W•H•Y traps; assay type: in vivo, Vespula pensylvanica; details: Exp 1; HIPV added to WHY attractant in the top chamber, or WHY alone
Description: (§2) Three field trapping experiments were carried out during late July to early August 2009, in residential and woody areas around Spokane, Wash., USA, using the newly marketed Rescue® W•H•Y traps (www.rescue.com). As used herein, the W•H•Y trap is a trap in accordance with the description of United States Patent Application Publication No. 2009/0151228. The W•H•Y trap has a top chamber and a bottom chamber. The top chamber is baited with two attractants—one of which is a solid contained in a vial (2-methyl-1-butanol) and the other a liquid mixed with water (acetic acid), herein referred to as the W•H•Y top attractant. The bottom chamber is baited with a liquid attractant (heptyl butyrate) poured onto a cotton pad, herein referred to as the W•H•Y bottom attractant. Separation of the top and bottom attractants (otherwise antagonistic to each other when released from the same chamber) in two chambers was a design feature of this trap and creates two focal attraction sources from one trap for different species of wasps, hornets, and yellowjackets. Traps were hung 1.5-2.0 m above the ground on either the fence or tree branches ca. 5 m apart within each trap line. For each trapping experiment, six sets of traps were deployed with their initial trap positions within each set being randomized. To minimize positional effects and obtain more replications, wasp collections and trap re-randomization were carried out when ≧10-20 wasps were caught in the best trap. Each replicate lasted several days depending on wasp flight activity. Captured wasps were removed from the traps and kept in the zip-bags before taking back to the laboratory for recording of the species, gender status, and catch.
(§3) Experiment 3 (Aug. 5-13, 2009) was conducted to determine the potential behavioral activity of different doses of (E)-4,8-dimethyl-1,3,7-nonatriene alone. The individual (or different doses) HIPVs were loaded into either polyethylene bags or centrifuge tube type of dispensers, and released from the top of the W•H•Y trap chamber. W•H•Y trap attractants (both top and bottom or top only) alone and water (top chamber only) were included in the test as positive and blank controls, respectively. The dispenser types, loading and release rates of the tested semiochemicals are described in Tables 1, 2 and 3.
(§4) Trap catch data were converted to proportion (P) of total captured wasps within each replicate. Data were then transformed by arcsin√P to meet the assumptions of normality and homogeneity of variances for ANOVA. Means were compared by ANOVA followed by the Ryan-Einot-Gabriel-Welsh (REGW) multiple Q test (SPSS 16.0 for Windows) at α=0.05.

V. vulgaris = test: Field trapping Experiment 1, Rescue W•H•Y traps; assay type: in vivo, Vespula vulgaris; details: Exp 1; HIPV added to WHY attractant in the top chamber, or WHY alone
Description: as §2, §3, §4

D. maculata = test: Field trapping Experiment 1, Rescue W•H•Y traps; assay type: in vivo, Dolichovespula maculata; details: Exp 1; HIPV added to WHY attractant in the top chamber, or WHY alone
Description: as §2
(§5) Experiment 1 (Jul. 22-30, 2009) tested ten synthetic HIPV candidates [(E)-2-hexenal, (Z)-3-hexen-1-ol, (Z)-3-hexenyl acetate, cis-ocimene, linalool, methyl salicylate, geranyl acetate, trans-β-caryophyllene, trans-β-farnesene and (E)-4,8-dimethyl-1,3,7-nonatriene], including several paper wasp EAD-active compounds (see FIG. 2 for details), to determine their potential synergistic effect on the Rescue® W•H•Y trap attractants to paper wasps, yellowjackets, and hornets. Experiment 2 (Aug. 5-13, 2009) tested behavioral responses of the paper wasps and yellowjackets to the Rescue® W•H•Y trap attractants (top attractants only) and its combination with (E)-4,8-dimethyl-1,3,7-nonatriene, one of the EAD-active and behaviorally significant HIPVs, in a dose-response fashion. Experiment 3 (Aug. 5-13, 2009) was conducted to determine the potential behavioral activity of different doses of (E)-4,8-dimethyl-1,3,7-nonatriene alone. The individual (or different doses) HIPVs were loaded into either polyethylene bags or centrifuge tube type of dispensers, and released from the top of the W•H•Y trap chamber. W•H•Y trap attractants (both top and bottom or top only) alone and water (top chamber only) were included in the test as positive and blank controls, respectively. The dispenser types, loading and release rates of the tested semiochemicals are described in Tables 1, 2 and 3.
as §4

D. arenaria = test: Field trapping Experiment 1, Rescue W•H•Y traps; assay type: in vivo, Dolichovespula arenaria; details: Exp 1; HIPV added to WHY attractant in the top chamber, or WHY alone
Description: as §2, §5, §4

V. acadica = test: Field trapping Experiment 1, Rescue W•H•Y traps; assay type: in vivo, Vespula acadica; details: Exp 1; HIPV added to WHY attractant in the top chamber, or WHY alone
Description: as §2, §3, §4

V. consobrina = assay type: in vivo, Vespula consobrina; details: Exp 1; HIPV added to WHY attractant in the top chamber, or WHY alone
Description: as §2, with “catch. […]” for “catch.”
as §4

P. dominulus = test: Field trapping Experiment 1, Rescue W•H•Y traps; assay type: in vivo, Polistes dominulus; details: Exp 1; HIPV added to WHY attractant in the top chamber, or WHY alone
Description: as §2, §3, §4

P. aurifer = test: Field trapping Experiment 1, Rescue W•H•Y traps; assay type: in vivo, Polistes aurifer; details: Exp 1; HIPV added to WHY attractant in the top chamber, or WHY alone
Description: as §2, §3, §4

V. atropilosa = assay type: in vivo, Vespula atropilosa; details: Exp 1; HIPV added to WHY attractant in the top chamber, or WHY alone
yellowjackets = test: Field trapping Experiment 1, top chamber catches; assay type: in vivo; details: Exp 1; HIPV combined with W•H•Y attractant (acetic acid and 2-methyl-1-butanol) in the top chamber
Description: as §2
(§6) Experiment 3 (Aug. 5-13, 2009) was conducted to determine the potential behavioral activity of different doses of (E)-4,8-dimethyl-1,3,7-nonatriene alone. The individual (or different doses) HIPVs were loaded into either polyethylene bags or centrifuge tube type of dispensers, and released from the top of the W•H•Y trap chamber. […]

[3] = system: paper wasps and yellowjackets; test: Field trapping bioassays, synergism with AA/2MB (summary); assay type: in vivo; details: at the doses tested
Description: as §2, §6

[4] = system: Chrysopa oculata antennae; test: GC-EAD of synthetic HIPVs on beneficial insect antennae; details: FIG. 6
Description: as §1

[5] = system: Hippodarnia convergens antennae; test: as above; details: FIG. 6
Description: as §1

[6] = system: Myrmeleon crudelis antennae; test: as above; details: FIG. 6
Description: as §1

[7] = system: Podisus maculiventris antennae; test: as above; details: FIG. 6
Description: as §1

[8] = aeration of undamaged or slightly damaged cherry branches
[9] = aeration of severely damaged cherry branches, at current release rates

| SMILES | EAD response of worker antennae [2] | Total Yellowjacket Catches V. pensylvanica (V. pensylvanica) | Total Yellowjacket Catches V. vulgaris (V. vulgaris) | Total Yellowjacket Catches D. maculata (D. maculata) | Total Yellowjacket Catches D. arenaria (D. arenaria) | Total Yellowjacket Catches V. acadica (V. acadica) | Total Yellowjacket Catches V. consobrina (V. consobrina) | Total Paper Wasps P. dominulus (P. dominulus) | Total Paper Wasps P. aurifer (P. aurifer) | Total Yellowjacket Catches V. atropilosa (V. atropilosa) | EAD response of worker antennae [1, 9] | further results |
| --- | --- | --- | --- | --- | --- | --- | --- | --- | --- | --- | --- | --- |
| CCC/C=C/COC(C)=O [(E)-2-hexenyl acetate] |  |  |  |  |  |  |  |  |  |  |  | EAD response of worker antennae [1, 8]: strongly responded |
| C=C/C=C(/C)CCC=C(C)C [(Z)-4,8-dimethyl-1,3,7-nonatriene] | responded consistently |  |  |  |  |  |  |  |  |  |  |  |
| CCC/C=C/C=O [E-2-Hexenal, (E)-2-hexenal] |  | 423 | 44 | 2 | 4 | 0 | 0 | 19 | 8 | 3 |  |  |
| CC(=O)OC/C=C(\C)CCC=C(C)C [Geranyl Acetate, geranyl acetate] | responded consistently | 128 | 18 | 1 | 2 | 0 | 1 | 13 | 4 | 2 |  | effect on trap catches of yellowjackets in the top chambers (yellowjackets): inhibitory effect |
| C=CC(C)(O)CCC=C(C)C (stereo not drawn) [Linalool, linalool] | responded consistently | 291 | 32 | 1 | 0 | 0 | 0 | 46 | 13 | 0 |  |  |
| CCCCCCCCC=O [nonanal] |  |  |  |  |  |  |  |  |  |  | repeatable antennal response | EAD response of worker antennae [1, 8]: strongly responded |
| Cc1ccc(C(C)C)cc1 [p-cymene] |  |  |  |  |  |  |  |  |  |  | did not elicit significant EAD-responses |  |
| C=C/C(C)=C/C/C=C(\C)CCC=C(C)C [α-farnesene] |  |  |  |  |  |  |  |  |  |  | did not elicit significant EAD-responses |  |
| C=C/C(C)=C/CC=C(C)C [β-ocimene, trans-β-ocimene] | responded consistently |  |  |  |  |  |  |  |  |  |  | synergism of attraction to mixture of acetic acid and 2-methyl-1-butanol [3]: significantly synergize; EAD-response [4]: strong EAD-responses; EAD-response [5]: strong EAD-responses; EAD-response [6]: strong EAD-responses; EAD-response [7]: strong EAD-responses |
